“And” between values parts separate entries of the source, which are not always exact repeats. Equal values may be shown once. Read-outs that look alike come from different tables or passages of the source.
Columns and labels:
Assay type in all cases: cell-based
[1] = biological target: T1, CFTR G551D mutant (Homo sapiens, UniProt P13569, G551D); assay: YFP-halide influx assay for the CFTR-G551D mutation (HEK293 cells); settings: read-out: EC50 measured by YFP-halide influx assay for the CFTR-G551D
T1 construct: expressed in transfected cells; host or cells: HEK293 (reverse transfection with plasmids)
Summary of the method: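 HEK293 cells reverse-transfected with CFTR G551D and halide-sensitive YFP, expressed 24 h at 37 °C. Iodide-induced fluorescence quench recorded for 7 s after I^− injection; response as 1−F/F0, EC50 from concentration plot.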

[2] = biological target: T2, CFTR ΔF508 mutant (Homo sapiens, UniProt P13569, DEL508-508); assay: YFP-halide influx assay for the CFTR-ΔF508 mutation (96 well, CFBE41o- cells); settings: read-out: EC50 measured by YFP-halide influx assay for the CFTR-ΔF508
T2 construct: expressed in transfected cells; host or cells: CFBE41o- (adenoviral transduction)
Description: 6.1. YFP-Halide Influx Assay for the CFTR-ΔF508 Mutation
The YFP halide influx assay measures the functionality of the cystic fibrosis Transmembrane Conductance regulator (CFTR) channels in the cystic fibrosis bronchial epithelium cell line CFBE41o-. The assay is used to evaluate the capacity of compounds to increase the open probability of existing CFTR channels in the membrane. It makes use of the observation that the yellow fluorescent protein (YFP) variant YFP H148Q, I152L has its fluorescence substantially quenched by halide ions like Cl^− and I^−. (Galietta et al., 2001; Nagai et al., 2002)
For this purpose, CFBE410-cells are seeded in 96 well plates (6000 CFBE cells/well). One day after seeding, the CFBE cells are transduced with adenoviral vectors that direct the expression of the CFTR ΔF508 mutant and of the YFP reporter. Cells are incubated at 27° C., 5% CO2 for 24 hours so as to allow for the proper folding and migration to the membrane of the CFTR channel or treated with a CFTR modulator during 24 h at 37° C.
The […] quenching of fluorescence is recorded immediately after injection of I^− for 7 seconds. The capacity of a compound to increase the channel opening is directly correlated with the decrease in fluorescence, and is expressed as (1-(fluorescence after 7 seconds (F)/fluorescence before injection (F0))) and an EC50 can be derived from a (1−F/F0) vs compound concentration plot.

[3] = biological target: T3, CFTR ΔF508 (Homo sapiens, UniProt P13569, DEL508-508); assay: TECC assay, primary bronchial epithelial cells from CF patients homozygous for CFTR ΔF508; settings: for ΔIsc / Current increase: TECC assay; for Current increase: compound at 50 nM, difference between ΔIsc with compound and ΔIsc DMSO (baseline); for activity on the CFTR protein in TECC assay (ΔISC vs DMSO baseline): at 3 μM, or 50 nM, or 50/100/200 nM; for EC50: primary bronchial epithelial cells, CFTR ΔF508, several values in a cell = repeat determinations
T3 construct: host or cells: primary bronchial epithelial cells from CF patients homozygous for ΔF508, pre-treated with VX809
Protocol: 7.2.1. Primary Bronchial Epithelial Cells Protocol
The TECC (Tranepithelial Clamp Circuit, EP-design) assay measures the functionality of the cystic fibrosis Transmembrane Conductance regulator (CFTR) by measuring the short circuit current (ISC) generated over the basolateral and apical membrane of lung epithelial cells. In TECC the transepithelial potential PD and transepithelial resistance (Rt) are measured in an open circuit and transformed to ISC using Ohm's law. 24 wells can be measured simultaneously allowing a higher throughput compared to Ussing chambers.
For this purpose, bronchial epithelial cells isolated from CF patients homozygous for the CFTR ΔF508 mutation (hAEC-CF, Epithelix) are plated on type IV collagen-coated Transwell supports (Costar). Human airway epithelia are generated by provision of an air-liquid interface for 21 days to form well-differentiated polarized cultures that resemble in vivo pseudo-stratified ciliated epithelium (Fulcher et al., 2005). In the case of the homozygous ΔF508 CFTR samples, the differentiated cells are treated with 3 μM VX809 (2626 South Loop West, Suite 225, Houston, Tex. 77054 USA, Cat n#51565) to allow sufficient expression of properly folded CFTR protein on the membrane (48 hours basolateral treatment and 24 hours apical treatment), prior to electrophysiological recordings. […] G551D/ΔF508, differentiated cells are used as such for the recordings.
Information on the compounds can be retrieved on the homozygous ΔF508 CFTR samples looking at increased CFTR activity when compounds are added in an acute mode or in a chronic mode. On G551D/ΔF508 CFTR heterozygous samples compounds are added in an acute mode to the differentiated cells.
For the acute mode, for electrophysiological recording, the human airway epithelia are mounted in the TECC heating plate for electrophysiological measurement and kept at 37° C. The epithelia are bathed in a NaCl-Ringer solution (120 mM NaCl, 25 mM NaHCO3, 1.2 mM CaCl2, 1.2 mM MgCl2, 0.8 mM KH2PO4, 0.8 mM K2HPO4, pH 7.4, 5 mM glucose) on both the basolateral and apical sides. Apical amiloride is used to inhibit the endogenous ENaC currents while forkolin is applied on both apical and basolateral side to stimulate CFTR. After forskolin triggering, compounds are added on both sides to test their potential for increasing CFTR gating. Measurements are done during a 20 minute timeframe with recordings every 2 minutes. The increase in ISC is used as a measure for the increased CFTR activity, EC50 values can be generated by measuring impact of different concentrations of compound on ISC on primary cells, for this purpose each transwell is treated with a different compound concentration. Inh-172, an inhibitor specific for CFTR, is used to test the specificity of the tested compounds.
For the chronic mode, the differentiated cells are treated with 3 μM VX809 (2626 South Loop West, Suite 225, Houston, Tex. 77054 USA, Cat n#51565) and potentiator compounds at different concentrations (48 hours basolateral treatment and 24 hours apical treatment), prior to electrophysiological recordings. For electrophysiological recording, the human airway epithelia are mounted in the TECC heating plate for electrophysiological measurement and kept at 37° C. […]

[4] = biological target: T2, CFTR ΔF508 mutant; assay: YFP-halide influx assay for the CFTR-ΔF508 mutation (384 well, CFBE41o- cells, FDSS/μCell); settings: forskolin 10.67 μM, fluorescence after 36 seconds, read-out: EC50 measured by YFP-halide influx assay for the CFTR-ΔF508
Summary of the method: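 CFBE41o- cells were adenovirally transduced with ΔF508 CFTR and the YFP H148Q/I152L reporter. Cells were then held 24 h at 27 °C or treated 24 h at 37 °C with a CFTR modulator. Iodide-induced quench was recorded for 2 min, and EC50 was derived from 1−F/F0 at 36 s against compound concentration.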

[5] = comparative compounds, HEK293 cells
[6] = compounds of the invention, 96 well, forskolin 10.67 μM
[7] = HEK293 cells expressing CFTR G551D and YFP reporter, forskolin 10.67 μM

T1 sequence (P13569 whole entry G551D): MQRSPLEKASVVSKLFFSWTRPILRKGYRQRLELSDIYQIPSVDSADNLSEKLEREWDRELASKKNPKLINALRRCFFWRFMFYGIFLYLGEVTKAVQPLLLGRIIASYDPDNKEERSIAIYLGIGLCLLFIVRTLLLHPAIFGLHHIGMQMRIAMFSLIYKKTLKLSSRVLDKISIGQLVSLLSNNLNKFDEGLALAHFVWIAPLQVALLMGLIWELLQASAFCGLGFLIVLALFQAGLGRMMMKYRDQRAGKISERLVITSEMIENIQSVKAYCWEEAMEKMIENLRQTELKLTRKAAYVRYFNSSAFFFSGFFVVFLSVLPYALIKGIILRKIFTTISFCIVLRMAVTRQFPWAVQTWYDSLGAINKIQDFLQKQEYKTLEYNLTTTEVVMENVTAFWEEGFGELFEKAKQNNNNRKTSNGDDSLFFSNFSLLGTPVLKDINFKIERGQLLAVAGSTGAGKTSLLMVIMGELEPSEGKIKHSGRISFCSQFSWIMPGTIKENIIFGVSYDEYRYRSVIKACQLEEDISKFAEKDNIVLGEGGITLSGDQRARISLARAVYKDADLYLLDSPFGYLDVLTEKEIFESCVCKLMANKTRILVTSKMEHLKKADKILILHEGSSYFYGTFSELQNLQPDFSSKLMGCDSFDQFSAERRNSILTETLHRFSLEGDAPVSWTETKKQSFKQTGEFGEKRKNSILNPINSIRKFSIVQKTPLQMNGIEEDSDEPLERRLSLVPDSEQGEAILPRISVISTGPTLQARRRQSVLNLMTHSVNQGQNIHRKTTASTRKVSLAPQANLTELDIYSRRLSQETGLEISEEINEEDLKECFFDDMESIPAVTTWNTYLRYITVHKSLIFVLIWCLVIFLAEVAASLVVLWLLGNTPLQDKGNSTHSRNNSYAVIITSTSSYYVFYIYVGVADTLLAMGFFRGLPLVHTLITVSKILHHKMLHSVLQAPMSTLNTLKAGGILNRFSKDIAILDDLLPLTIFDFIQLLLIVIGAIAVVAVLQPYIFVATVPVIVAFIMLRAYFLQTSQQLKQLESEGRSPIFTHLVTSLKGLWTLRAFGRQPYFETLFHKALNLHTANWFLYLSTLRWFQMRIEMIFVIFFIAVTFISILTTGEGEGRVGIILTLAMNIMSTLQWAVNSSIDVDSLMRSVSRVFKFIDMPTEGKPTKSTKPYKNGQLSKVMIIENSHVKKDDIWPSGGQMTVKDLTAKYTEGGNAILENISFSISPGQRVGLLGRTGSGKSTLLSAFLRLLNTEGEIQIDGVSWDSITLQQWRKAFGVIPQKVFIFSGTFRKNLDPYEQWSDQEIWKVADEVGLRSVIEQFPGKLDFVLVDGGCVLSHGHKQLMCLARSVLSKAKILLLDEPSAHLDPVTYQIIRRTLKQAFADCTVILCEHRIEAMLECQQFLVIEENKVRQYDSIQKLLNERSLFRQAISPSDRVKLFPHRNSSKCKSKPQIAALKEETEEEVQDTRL
T2 sequence (P13569 with tags, fused parts or gaps DEL508-508): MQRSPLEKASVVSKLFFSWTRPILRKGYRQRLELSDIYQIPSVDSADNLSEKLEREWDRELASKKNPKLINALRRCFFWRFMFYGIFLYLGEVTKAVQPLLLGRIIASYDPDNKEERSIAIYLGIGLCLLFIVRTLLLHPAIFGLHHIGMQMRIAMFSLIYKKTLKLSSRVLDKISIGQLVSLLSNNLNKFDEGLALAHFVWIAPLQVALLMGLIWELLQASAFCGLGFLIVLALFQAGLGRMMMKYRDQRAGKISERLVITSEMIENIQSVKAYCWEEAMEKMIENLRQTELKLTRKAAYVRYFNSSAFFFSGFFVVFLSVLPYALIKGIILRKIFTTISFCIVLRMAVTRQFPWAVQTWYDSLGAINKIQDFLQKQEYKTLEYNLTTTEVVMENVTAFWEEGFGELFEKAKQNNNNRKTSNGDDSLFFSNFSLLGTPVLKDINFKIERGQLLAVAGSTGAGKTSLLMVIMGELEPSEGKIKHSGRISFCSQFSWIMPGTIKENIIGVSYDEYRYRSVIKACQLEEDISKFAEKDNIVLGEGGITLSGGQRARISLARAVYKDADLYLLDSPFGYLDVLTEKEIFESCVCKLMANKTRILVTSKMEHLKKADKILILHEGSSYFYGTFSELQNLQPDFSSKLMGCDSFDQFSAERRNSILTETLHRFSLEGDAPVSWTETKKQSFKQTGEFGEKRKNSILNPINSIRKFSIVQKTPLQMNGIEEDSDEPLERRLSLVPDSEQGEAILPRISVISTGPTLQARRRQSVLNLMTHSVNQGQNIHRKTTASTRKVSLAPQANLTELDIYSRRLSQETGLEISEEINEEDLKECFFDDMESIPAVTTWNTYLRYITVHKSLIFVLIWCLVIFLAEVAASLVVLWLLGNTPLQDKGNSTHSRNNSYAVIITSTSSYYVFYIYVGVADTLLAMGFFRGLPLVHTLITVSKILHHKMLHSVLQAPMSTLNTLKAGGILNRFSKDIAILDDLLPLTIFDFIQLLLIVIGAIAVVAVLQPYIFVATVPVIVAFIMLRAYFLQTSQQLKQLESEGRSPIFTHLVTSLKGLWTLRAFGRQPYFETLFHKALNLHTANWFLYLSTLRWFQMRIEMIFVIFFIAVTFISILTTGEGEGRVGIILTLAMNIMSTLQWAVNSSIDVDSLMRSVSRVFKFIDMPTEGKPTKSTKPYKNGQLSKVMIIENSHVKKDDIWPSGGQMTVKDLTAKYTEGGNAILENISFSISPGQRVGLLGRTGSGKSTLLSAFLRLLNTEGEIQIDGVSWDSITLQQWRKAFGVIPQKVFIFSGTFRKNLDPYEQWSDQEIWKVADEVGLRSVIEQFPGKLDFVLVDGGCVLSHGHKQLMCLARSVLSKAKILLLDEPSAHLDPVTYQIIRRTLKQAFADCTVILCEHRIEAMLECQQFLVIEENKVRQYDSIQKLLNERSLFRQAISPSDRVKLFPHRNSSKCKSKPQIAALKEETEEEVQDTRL
T3 sequence (P13569 with tags, fused parts or gaps DEL508-508): as above

Row | Structure (SMILES) | EC50 [2, 6] [nM] | EC50 [4] [nM] | EC50 [1, 7] [nM] | further results
1 | CN1CCc2c(sc(NC(=O)c3ccccc3O)c2C(N)=O)C1 [A, 2-(2-hydroxybenzamido)-6-methyl-4,5,6,7-tetrahydrothieno[2,3-c]pyridine-3-carboxamide, reference compound] | – | – | – | EC50 [1, 5]: > 10000 nM; EC50 ([2]; comparative compounds): > 10000 nM; ΔIsc ([3]; compound at 50 nM (Table XV)): −0.3248 μA/cm^2; ΔIsc ([3]; compound at 50 nM (Table XVI)): −0.3807 μA/cm^2; Current increase [3]: −0.0559 μA/cm^2; ΔIsc ([3]; compound at 100 nM (Table XVI)): −0.5401 μA/cm^2; ΔIsc ([3]; compound at 200 nM (Table XVI)): −0.6598 μA/cm^2; activity on the CFTR protein in TECC assay (ΔISC vs DMSO baseline) [3]: no such activity
2 | NC(=O)c1c(NC(=O)c2ccccc2Cl)sc2c1CCCC2 [B, 2-(2-chlorobenzamido)-4,5,6,7-tetrahydrobenzo[b]thiophene-3-carboxamide, reference compound] | – | – | – | EC50 ([2]; comparative compounds): < 370 nM; ΔIsc ([3]; compound at 50 nM (Table XV)): 0.1807 μA/cm^2; ΔIsc ([3]; compound at 50 nM (Table XVI)): 0.1807 μA/cm^2; Current increase [3]: 0.5055 μA/cm^2; ΔIsc ([3]; compound at 100 nM (Table XVI)): 0.4762 μA/cm^2; ΔIsc ([3]; compound at 200 nM (Table XVI)): 0.8022 μA/cm^2; activity on the CFTR protein in TECC assay (ΔISC vs DMSO baseline) [3]: no such activity
3 | CC1(C)Cc2c(sc(NC(=O)C(C)(C)O)c2C(N)=O)C(C)(C)O1 [Compound 6, 2-(2-hydroxy-2-methylpropanamido)-5,5,7,7-tetramethyl-5,7-dihydro-4H-thieno[2,3-c]pyran-3-carboxamide] | 75.8 | 16.2 | – | EC50 [3]: 165 nM and 60.9 nM
4 | CC1(C)Cc2c(sc(NC(=O)c3cccnc3F)c2C(N)=O)C(C)(C)O1 [Compound 20, N-(3-carbamoyl-5,5,7,7-tetramethyl-5,7-dihydro-4H-thieno[2,3-c]pyran-2-yl)-2-fluoronicotinamide] | 305 | 422 | 3290 | –
5 | CC1(C)Cc2c(sc(NC(=O)c3ccc(F)cc3O)c2C(N)=O)C(C)(C)O1 [Compound 21, 2-(4-fluoro-2-hydroxybenzamido)-5,5,7,7-tetramethyl-5,7-dihydro-4H-thieno[2,3-c]pyran-3-carboxamide] | 6.46 | 0.71 | 57.5 | EC50 [3]: 16.3 nM
6 | CC1(C)Cc2c(sc(NC(=O)c3cccnc3O)c2C(N)=O)C(C)(C)O1 [Compound 23, N-(3-carbamoyl-5,5,7,7-tetramethyl-5,7-dihydro-4H-thieno[2,3-c]pyran-2-yl)-2-oxo-1,2-dihydropyridine-3-carboxamide] | 102 | 190 | 1270 | –
7 | CC1(C)Cc2c(sc(NC(=O)c3ccccc3-c3ncc[nH]3)c2C(N)=O)C(C)(C)O1 [Compound 27, 2-(2-(1H-imidazol-2-yl)benzamido)-5,5,7,7-tetramethyl-5,7-dihydro-4H-thieno[2,3-c]pyran-3-carboxamide] | 440 | 189 | 1670 | –
8 | CC1(C)Cc2c(sc(NC(=O)c3ccccc3NS(C)(=O)=O)c2C(N)=O)C(C)(C)O1 [Compound 28, 5,5,7,7-tetramethyl-2-(2-(methylsulfonamido)benzamido)-5,7-dihydro-4H-thieno[2,3-c]pyran-3-carboxamide] | 378 | 147 | 2000 | –
9 | CC1(C)Cc2c(sc(NC(=O)C3CCNC3=O)c2C(N)=O)C(C)(C)O1 (stereo not drawn) [Compound 30, N-(3-carbamoyl-5,5,7,7-tetramethyl-5,7-dihydro-4H-thieno[2,3-c]pyran-2-yl)-2-oxopyrrolidine-3-carboxamide] | 141 | 101 | 6660 | –
10 | CC1(C)Cc2c(sc(NC(=O)c3n[nH]c4c3COCC4)c2C(N)=O)C(C)(C)O1 [Compound 32, N-(3-carbamoyl-5,5,7,7-tetramethyl-5,7-dihydro-4H-thieno[2,3-c]pyran-2-yl)-1,4,6,7-tetrahydropyrano[4,3-c]pyrazole-3-carboxamide] | 23 | 39.6 | 854 | –
11 | CCc1[nH]nc(C(=O)Nc2sc3c(c2C(N)=O)CC(C)(C)OC3(C)C)c1Cl [Compound 36, N-(3-carbamoyl-5,5,7,7-tetramethyl-5,7-dihydro-4H-thieno[2,3-c]pyran-2-yl)-4-chloro-5-ethyl-1H-pyrazole-3-carboxamide] | 13 | 12.4 | 716 | –
12 | CC1(C)Cc2c(sc(NC(=O)c3[nH]nc4c3COC4)c2C(N)=O)C(C)(C)O1 [Compound 37, N-(3-carbamoyl-5,5,7,7-tetramethyl-5,7-dihydro-4H-thieno[2,3-c]pyran-2-yl)-4,6-dihydro-1H-furo[3,4-c]pyrazole-3-carboxamide] | 16 | 25.4 | 892 | –
13 | NC(=O)c1c(NC(=O)c2cc[nH]n2)sc2c1CCOC2 [E, N-(3-carbamoyl-5,7-dihydro-4H-thieno[2,3-c]pyran-2-yl)-1H-pyrazole-3-carboxamide, reference compound] | – | – | – | EC50 [1, 5]: 2900 nM; EC50 ([2]; comparative compounds): 479 nM; ΔIsc ([3]; compound at 50 nM (Table XV)): 0.1663 μA/cm^2; ΔIsc ([3]; compound at 50 nM (Table XVI)): 0.1663 μA/cm^2; Current increase [3]: 0.4911 μA/cm^2; ΔIsc ([3]; compound at 100 nM (Table XVI)): −0.0318 μA/cm^2; ΔIsc ([3]; compound at 200 nM (Table XVI)): 0.5241 μA/cm^2; activity on the CFTR protein in TECC assay (ΔISC vs DMSO baseline) [3]: no such activity

— US9351955B2, “Compounds and pharmaceutical compositions thereof for the treatment of cystic fibrosis” (Galapagos NV, priority 2013, dated 2016)
